# Like-named read-outs stand apart in the source and are kept apart here.
# Key:
# [1] = system: Key Broadleaf Weed and Crop Species; assay: Post-Emergent Test II: postemergent herbicidal activity, visual rating after 14 d (Table 7); assay type: in vivo; conditions: post-emergence, 336 h; for pest or weed control at 35 g/ha: 35 g ai/ha; for pest or weed control at 70 g/ha: 70 g ai/ha; for pest or weed control at 140 g/ha: 140 g ai/ha
# How it was run: (§1)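 Greenhouse-grown plants at the first or second true leaf stage (7-21 d, ~15 h photoperiod, 23-29° C day) were sprayed with compound in acetone/DMSO-based aqueous spray containing crop oil concentrate and Triton X-155 at 187 L/ha. Injury versus untreated plants was rated visually after 14 d on a 0-100 scale.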
# [2] = system: Key Grass and Sedge Weeds as well as Grass Crops; assay: Post-Emergent Test II: postemergent herbicidal activity, visual rating after 14 d (Table 8); assay type: in vivo; conditions: post-emergence, 336 h; for pest or weed control at 35 g/ha: 35 g ai/ha; for pest or weed control at 70 g/ha: 70 g ai/ha; for pest or weed control at 140 g/ha: 140 g ai/ha
# How it was run: as §1
# [3] = lambsquarters (Chenopodium album), read-out: Visual Growth Reduction (%) 14 Days After Application CHEAL
# [4] = oilseed rape, canola (Brassica napus), read-out: Visual Growth Reduction (%) 14 Days After Application BRSNN
# [5] = redroot pigweed (Amaranthus retroflexus), read-out: Visual Growth Reduction (%) 14 Days After Application AMARE
# [6] = sunflower (Helianthus annuus), read-out: Visual Growth Reduction (%) 14 Days After Application HELAN
# [7] = velvetleaf (Abutilon theophrasti), read-out: Visual Growth Reduction (%) 14 Days After Application ABUTH
# [8] = wild poinsettia (Euphorbia heterophylla), read-out: Visual Growth Reduction (%) 14 Days After Application EPHHL
# [9] = barnyardgrass (Echinochloa crus-galli), read-out: Visual Growth Reduction (%) 14 Days After Application ECHCG
# [10] = maize, corn (Zea mays), read-out: Visual Growth Reduction (%) 14 Days After Application ZEAMX
# [11] = rice (Oryza sativa), read-out: Visual Growth Reduction (%) 14 Days After Application ORYSA
# [12] = wheat, spring (Triticum aestivum), read-out: Visual Growth Reduction (%) 14 Days After Application TRZAS
# [13] = yellow nutsedge (Cyperus esculentus), read-out: Visual Growth Reduction (%) 14 Days After Application CYPES
structure (smiles),measurement,setting,value
COC(=O)c1nc(-c2cc3c(cc2F)OC(F)(F)O3)cc(N)c1Cl [Compound 32],pest or weed control at 35 g/ha,[1]; [3],95 to 100%
same,pest or weed control at 70 g/ha,[1]; [3],95 to 100%
same,pest or weed control at 140 g/ha,[1]; [3],95 to 100%
same,pest or weed control at 35 g/ha,[1]; [4],60 to 74%
same,pest or weed control at 70 g/ha,[1]; [4],60 to 74%
same,pest or weed control at 140 g/ha,[1]; [4],75 to 84%
same,pest or weed control at 35 g/ha,[1]; [5],0 to 29%
same,pest or weed control at 70 g/ha,[1]; [5],45 to 59%
same,pest or weed control at 140 g/ha,[1]; [5],75 to 84%
same,pest or weed control at 35 g/ha,[1]; [6],75 to 84%
same,pest or weed control at 70 g/ha,[1]; [6],75 to 84%
same,pest or weed control at 140 g/ha,[1]; [6],75 to 84%
same,pest or weed control at 35 g/ha,[1]; [7],85 to 94%
same,pest or weed control at 70 g/ha,[1]; [7],85 to 94%
same,pest or weed control at 140 g/ha,[1]; [7],85 to 94%
same,pest or weed control at 35 g/ha,[1]; [8],0 to 29%
same,pest or weed control at 70 g/ha,[1]; [8],60 to 74%
same,pest or weed control at 140 g/ha,[1]; [8],60 to 74%
same,pest or weed control at 35 g/ha,[2]; [9],60 to 74%
same,pest or weed control at 70 g/ha,[2]; [9],75 to 84%
same,pest or weed control at 140 g/ha,[2]; [9],75 to 84%
same,pest or weed control at 35 g/ha,[2]; [10],60 to 74%
same,pest or weed control at 70 g/ha,[2]; [10],60 to 74%
same,pest or weed control at 140 g/ha,[2]; [10],75 to 84%
same,pest or weed control at 35 g/ha,[2]; [11],0 to 29%
same,pest or weed control at 70 g/ha,[2]; [11],0 to 29%
same,pest or weed control at 140 g/ha,[2]; [11],0 to 29%
same,pest or weed control at 35 g/ha,[2]; [12],45 to 59%
same,pest or weed control at 70 g/ha,[2]; [12],60 to 74%
same,pest or weed control at 140 g/ha,[2]; [12],60 to 74%
same,pest or weed control at 35 g/ha,[2]; [13],95 to 100%
same,pest or weed control at 70 g/ha,[2]; [13],95 to 100%
same,pest or weed control at 140 g/ha,[2]; [13],95 to 100%
